The target of data set [1] is rat Nav1.6 sodium channels (Rattus norvegicus, UniProt O88420). The class given is cell-based. Conditions: for Effect of repetitive depolarization on modification (words): trains of high-frequency depolarizing prepulses; for Steady-state inactivation K (slope factor) / Activation K (slope factor) / Activation V0.5 (midpoint potential) / Steady-state inactivation V0.5 (midpoint potential) / Tail current decay time constant, fast component (τ1) / Peak current inactivation time constant, fast component (τfast) / Peak current inactivation time constant, slow component (τslow): pyrethroid 100 μM; for Steady-state inactivation K (slope factor) / Activation K (slope factor) / Activation V0.5 (midpoint potential) / Steady-state inactivation V0.5 (midpoint potential): Boltzmann fit; for Steady-state inactivation K (slope factor): control 7.02 ± 0.13; for Activation K (slope factor): control 8.02 ± 0.23; for Activation V0.5 (midpoint potential): control −17.0 ± 0.4; for Steady-state inactivation V0.5 (midpoint potential): control −50.3 ± 0.3; for Tail current decay time constant, fast component (τ1) / Peak current inactivation time constant, fast component (τfast) / Peak current inactivation time constant, slow component (τslow): mean ± SE; for Peak current inactivation time constant, fast component (τfast): control 1.32 ± 0.03; for Peak current inactivation time constant, slow component (τslow): control 10.93 ± 2.25.
Sequence of rat Nav1.6 sodium channels (O88420 whole entry): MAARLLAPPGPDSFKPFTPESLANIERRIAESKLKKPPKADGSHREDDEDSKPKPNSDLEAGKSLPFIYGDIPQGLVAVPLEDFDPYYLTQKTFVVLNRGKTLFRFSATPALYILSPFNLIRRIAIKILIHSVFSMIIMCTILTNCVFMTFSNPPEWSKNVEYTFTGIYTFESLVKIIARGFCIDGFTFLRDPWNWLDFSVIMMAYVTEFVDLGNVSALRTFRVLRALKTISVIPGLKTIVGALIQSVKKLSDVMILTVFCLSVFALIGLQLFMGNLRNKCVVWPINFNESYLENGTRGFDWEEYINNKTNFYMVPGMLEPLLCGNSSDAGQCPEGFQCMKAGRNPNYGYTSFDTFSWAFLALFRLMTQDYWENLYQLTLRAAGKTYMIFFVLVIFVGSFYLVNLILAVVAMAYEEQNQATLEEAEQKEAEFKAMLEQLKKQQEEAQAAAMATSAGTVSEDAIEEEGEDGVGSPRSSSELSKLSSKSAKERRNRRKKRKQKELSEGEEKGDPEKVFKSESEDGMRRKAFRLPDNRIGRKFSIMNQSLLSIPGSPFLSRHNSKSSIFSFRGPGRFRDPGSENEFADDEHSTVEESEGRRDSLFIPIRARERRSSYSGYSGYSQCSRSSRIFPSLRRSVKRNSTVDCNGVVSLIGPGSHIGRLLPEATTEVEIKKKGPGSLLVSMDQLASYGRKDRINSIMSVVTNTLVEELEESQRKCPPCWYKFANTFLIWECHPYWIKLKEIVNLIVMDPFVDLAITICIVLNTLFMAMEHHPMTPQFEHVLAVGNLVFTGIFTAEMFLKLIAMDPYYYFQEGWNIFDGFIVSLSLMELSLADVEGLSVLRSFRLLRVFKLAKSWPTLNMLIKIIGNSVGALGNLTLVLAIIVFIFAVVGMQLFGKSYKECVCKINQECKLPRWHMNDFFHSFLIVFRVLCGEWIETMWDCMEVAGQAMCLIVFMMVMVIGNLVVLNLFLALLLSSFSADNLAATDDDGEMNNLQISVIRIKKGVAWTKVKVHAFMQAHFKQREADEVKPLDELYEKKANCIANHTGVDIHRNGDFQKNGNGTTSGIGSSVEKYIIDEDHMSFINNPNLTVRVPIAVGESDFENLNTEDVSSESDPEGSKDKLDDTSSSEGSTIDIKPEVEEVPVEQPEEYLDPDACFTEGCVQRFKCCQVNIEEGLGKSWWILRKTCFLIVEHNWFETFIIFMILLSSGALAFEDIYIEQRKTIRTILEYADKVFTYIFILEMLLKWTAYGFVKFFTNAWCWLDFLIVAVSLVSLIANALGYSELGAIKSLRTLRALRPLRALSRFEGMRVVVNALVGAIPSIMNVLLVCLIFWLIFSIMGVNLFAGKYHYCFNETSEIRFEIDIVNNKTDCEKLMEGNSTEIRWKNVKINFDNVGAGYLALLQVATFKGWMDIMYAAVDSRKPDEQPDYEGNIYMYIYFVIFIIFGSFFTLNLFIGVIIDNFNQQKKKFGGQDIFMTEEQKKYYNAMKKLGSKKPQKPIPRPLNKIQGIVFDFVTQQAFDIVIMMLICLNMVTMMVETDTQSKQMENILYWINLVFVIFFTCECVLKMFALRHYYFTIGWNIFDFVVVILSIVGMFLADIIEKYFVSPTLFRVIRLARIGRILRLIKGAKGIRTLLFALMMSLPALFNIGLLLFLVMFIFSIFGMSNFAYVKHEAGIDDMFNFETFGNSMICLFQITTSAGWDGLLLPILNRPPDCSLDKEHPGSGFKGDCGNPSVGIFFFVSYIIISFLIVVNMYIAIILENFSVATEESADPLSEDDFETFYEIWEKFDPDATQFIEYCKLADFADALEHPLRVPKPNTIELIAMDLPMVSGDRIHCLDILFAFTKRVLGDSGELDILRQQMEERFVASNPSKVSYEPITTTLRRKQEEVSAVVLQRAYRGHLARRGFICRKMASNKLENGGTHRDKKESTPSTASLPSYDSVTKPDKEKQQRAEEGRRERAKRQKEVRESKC
Sequence of rat Nav1.6 sodium channels (Q00954 19-218 partner): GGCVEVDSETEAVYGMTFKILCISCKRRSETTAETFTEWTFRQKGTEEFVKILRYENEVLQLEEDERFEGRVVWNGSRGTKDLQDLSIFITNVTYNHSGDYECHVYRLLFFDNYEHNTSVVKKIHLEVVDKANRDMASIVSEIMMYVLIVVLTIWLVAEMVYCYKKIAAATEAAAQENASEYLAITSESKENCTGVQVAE
Sequence of rat Nav1.6 sodium channels (P54900 30-215 partner): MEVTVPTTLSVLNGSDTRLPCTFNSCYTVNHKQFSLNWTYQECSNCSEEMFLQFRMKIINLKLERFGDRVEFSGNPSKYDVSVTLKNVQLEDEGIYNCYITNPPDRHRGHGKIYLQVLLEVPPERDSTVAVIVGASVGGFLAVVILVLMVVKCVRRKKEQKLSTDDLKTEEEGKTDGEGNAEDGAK

In data set [2] the test system is rats. The settings on record: rat, in vivo; cited from earlier work.
In data set [3] the target is rat Nav1.2 sodium channels (Rattus norvegicus, UniProt P04775, N209D). The format is cell-based.
Sequence of rat Nav1.2 sodium channels (P04775 whole entry N209D): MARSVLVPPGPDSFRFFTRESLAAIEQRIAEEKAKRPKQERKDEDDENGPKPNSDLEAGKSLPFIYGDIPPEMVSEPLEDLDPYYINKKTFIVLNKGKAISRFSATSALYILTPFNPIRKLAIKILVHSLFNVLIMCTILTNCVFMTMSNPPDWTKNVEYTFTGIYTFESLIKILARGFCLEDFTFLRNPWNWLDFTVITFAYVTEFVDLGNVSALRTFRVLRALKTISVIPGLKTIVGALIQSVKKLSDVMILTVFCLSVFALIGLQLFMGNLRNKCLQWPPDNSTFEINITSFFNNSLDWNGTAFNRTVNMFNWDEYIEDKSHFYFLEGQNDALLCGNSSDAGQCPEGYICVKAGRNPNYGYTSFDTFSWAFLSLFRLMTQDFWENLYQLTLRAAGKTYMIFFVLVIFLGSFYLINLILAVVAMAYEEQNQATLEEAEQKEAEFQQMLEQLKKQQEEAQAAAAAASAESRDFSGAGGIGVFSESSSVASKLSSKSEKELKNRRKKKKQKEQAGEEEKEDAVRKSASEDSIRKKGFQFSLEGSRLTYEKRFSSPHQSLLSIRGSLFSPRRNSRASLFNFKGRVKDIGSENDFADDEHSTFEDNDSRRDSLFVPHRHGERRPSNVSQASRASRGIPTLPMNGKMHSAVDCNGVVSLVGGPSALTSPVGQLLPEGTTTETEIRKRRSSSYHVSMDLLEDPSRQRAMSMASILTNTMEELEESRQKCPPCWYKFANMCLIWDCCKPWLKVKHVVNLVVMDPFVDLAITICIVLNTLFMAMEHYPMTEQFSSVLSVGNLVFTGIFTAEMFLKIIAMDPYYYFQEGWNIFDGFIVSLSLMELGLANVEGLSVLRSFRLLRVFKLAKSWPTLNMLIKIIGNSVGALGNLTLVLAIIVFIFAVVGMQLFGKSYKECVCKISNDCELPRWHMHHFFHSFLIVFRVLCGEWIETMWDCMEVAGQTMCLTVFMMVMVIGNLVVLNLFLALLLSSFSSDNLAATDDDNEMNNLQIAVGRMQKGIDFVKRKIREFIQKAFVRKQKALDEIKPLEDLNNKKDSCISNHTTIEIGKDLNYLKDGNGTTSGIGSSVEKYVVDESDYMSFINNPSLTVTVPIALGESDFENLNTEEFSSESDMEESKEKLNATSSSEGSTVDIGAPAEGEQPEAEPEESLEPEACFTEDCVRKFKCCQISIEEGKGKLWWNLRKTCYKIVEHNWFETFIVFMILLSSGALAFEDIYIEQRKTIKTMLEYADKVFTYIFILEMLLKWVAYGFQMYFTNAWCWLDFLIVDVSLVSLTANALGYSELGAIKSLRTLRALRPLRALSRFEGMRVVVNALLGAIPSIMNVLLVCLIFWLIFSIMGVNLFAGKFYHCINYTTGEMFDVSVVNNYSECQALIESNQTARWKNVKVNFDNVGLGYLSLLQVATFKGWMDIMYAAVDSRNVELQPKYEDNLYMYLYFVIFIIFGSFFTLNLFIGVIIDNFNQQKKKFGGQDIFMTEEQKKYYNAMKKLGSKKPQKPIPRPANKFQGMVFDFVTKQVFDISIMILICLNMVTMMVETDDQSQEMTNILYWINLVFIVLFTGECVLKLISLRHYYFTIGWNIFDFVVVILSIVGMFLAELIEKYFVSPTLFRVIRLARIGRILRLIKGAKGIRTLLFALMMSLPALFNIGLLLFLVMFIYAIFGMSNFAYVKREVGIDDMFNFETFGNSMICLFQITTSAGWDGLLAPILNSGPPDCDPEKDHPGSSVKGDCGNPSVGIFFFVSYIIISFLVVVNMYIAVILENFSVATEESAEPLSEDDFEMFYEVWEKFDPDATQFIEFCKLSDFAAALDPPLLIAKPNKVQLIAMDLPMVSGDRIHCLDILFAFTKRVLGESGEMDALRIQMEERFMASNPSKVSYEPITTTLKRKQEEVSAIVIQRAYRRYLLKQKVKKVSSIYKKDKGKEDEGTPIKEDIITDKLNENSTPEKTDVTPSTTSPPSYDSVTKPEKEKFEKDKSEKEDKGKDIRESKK
Sequence of rat Nav1.2 sodium channels (Q00954 19-218 partner): as the sequence (Q00954 19-218 partner) above
Sequence of rat Nav1.2 sodium channels (P54900 30-215 partner): as the sequence (P54900 30-215 partner) above
Data set [4] deals with rats. Description: Acute oral toxicity to rats. The format is in vivo, rat. Conditions: ref Soderlund et al., 2002.
The mark [5] stands for this setting: 0 prepulses, Hill fit, mean ± SE of 5.
Setting [6] is: 100 prepulses, Hill fit, mean ± SE of 5.
[7] abbreviates: EC10 0 prepulses vs 100 prepulses.

Like-named read-outs stand apart in the source and are kept apart here. Marks after values point to notes of the source that are not given here.

With `C=CCC1=C(C)[C@@H](OC(=O)[C@@H]2[C@@H](C=C(C)C)C2(C)C)CC1=O` [S-bioallethrin], in data set [1] (100 μM, prepulses above 0 mV, control approximately 2% of total current), the “Increase of inactivation-resistant current relative to control” value is listed as “approximately five-fold”. Besides, the “Effect of repetitive depolarization on modification (words)” value in data set [1] (100 μM) is recorded as “decreased slightly”. The “Effect of repetitive depolarization on modification (words)” value in data set [1] (100 μM, listed as S-Bioallethrin) is “no further enhancement of modification”. Also, in data set [1], the “Steady-state inactivation K (slope factor)” value was found to be 6.24 ± 0.23, the “Activation K (slope factor)” value worked out at 7.78 ± 0.52, the “Activation V0.5 (midpoint potential)” value is on record as −19.2 ± 1.1 mV and the “Steady-state inactivation V0.5 (midpoint potential)” value is on record as −52.8 ± 1.1 mV. Also, in data set [1], the “Tail current decay time constant, fast component (τ1)” value was determined as 2.3 ± 0.4 ms; the “Peak current inactivation time constant, fast component (τfast)” value was 2.11 ± 0.12 ^d ms; the “Peak current inactivation time constant, slow component (τslow)” value is 7.30 ± 0.35 ^d ms.
On to `CC1(C)[C@H](C(=O)O[C@H](C#N)c2cccc(Oc3ccccc3)c2)[C@@H]1C=C(Br)Br` [deltamethrin], for which, in the data set with rats [2], the “Acute oral LD50” value was 95 mg/kg.
With `Cc1c(F)c(F)c(COC(=O)[C@@H]2[C@H](/C=C(\Cl)C(F)(F)F)C2(C)C)c(F)c1F` (racemic) [tefluthrin], the “EC10, resting modification” value in data set [3] (setting [5]) was 222 ± 82 µM. The “EC10, use-dependent modification” value in data set [3] (setting [6]) came out at 16.9 ± 5.5 µM. Besides, the “Increase of sensitivity (EC10) to the compound by repetitive depolarization” value in data set [3] (setting [7]) is recorded as “approximately 13 fold”. Further, in the data set on rats [4], the “Acute oral LD50 lower than that of deltamethrin” value is reported as “approximately 5 fold”. Besides, in data set [1] (setting [5]), the “EC10, resting modification” value stood at 14.1 ± 3.7 µM. In data set [1] (100 μM), the “Prepulse number up to which extent of modification increased, then stable” value was 80 prepulses and the “Tail current τ1 relative to S-bioallethrin-induced currents” value is reported as “approximately 4 fold”. Further, the “Increase of extent of channel modification by repetitive depolarization” value in data set [1] (100 μM, 100 prepulses vs 0 prepulses) is 2.8 fold. Also, the “Potency relative to deltamethrin as use-dependent modifier (EC10)” value in data set [1] (100 prepulses) is ~ 10 fold. Moreover, the “EC10, use-dependent modification” value in data set [1] (setting [6]) stood at 0.95 ± 0.22 µM. Moreover, the “Increase of sensitivity (EC10) to the compound by repetitive depolarization” value in data set [1] (setting [7]) is ~ 15 fold. In addition, the “Sensitivity of Nav1.6 isoform relative to Nav1.2 isoform (concentration–effect data)” value in data set [1] (abstract summary, state not specified) was “at least 15 fold”. Moreover, in data set [1], the “Steady-state inactivation K (slope factor)” value was 6.03 ± 0.10 ^b, the “Activation K (slope factor)” value stood at 8.06 ± 0.21, the “Activation V0.5 (midpoint potential)” value is recorded as −17.0 ± 1.0 mV and the “Steady-state inactivation V0.5 (midpoint potential)” value is −52.3 ± 1.2 mV. Also, in data set [1], the “Tail current decay time constant, fast component (τ1)” value is on record as 9.8 ± 0.6 ms; the “Peak current inactivation time constant, fast component (τfast)” value is reported as 1.12 ± 0.04 ^d ms; the “Peak current inactivation time constant, slow component (τslow)” value is 19.00 ± 0.64 ^d ms.

The values are drawn from publication PMC2929565 (Toxicology and applied pharmacology, 2010).
